Source: PubChem BioAssay (NCI)
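Method: 48-hour compound exposure of cells in 96-well plates, five concentrations, linear interpolation of endpoints. At the TGI there is no net growth.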

Columns and labels:
Assay in all cases: DTP human tumour cell line panel, 48 h
A549 NSCLC = system: A549 NSCLC
DU-145 prostate = system: DU-145 prostate
HCT-116 colon = system: HCT-116 colon
HOP-92 NSCLC = system: HOP-92 NSCLC
IGROV1 ovarian = system: IGROV1 ovarian
RXF 393 renal = system: RXF 393 renal
SF-539 CNS = system: SF-539 CNS
SK-MEL-2 melanoma = system: SK-MEL-2 melanoma

Compound | TGI (A549 NSCLC) [µM] | TGI (DU-145 prostate) [µM] | TGI (HCT-116 colon) [µM] | TGI (HOP-92 NSCLC) [µM] | TGI (IGROV1 ovarian) [µM] | TGI (RXF 393 renal) [µM] | TGI (SF-539 CNS) [µM] | TGI (SK-MEL-2 melanoma) [µM]
O=c1[nH]nc(-c2ccc([N+](=O)[O-])cc2)[nH]1 | > 100 | > 100 | > 100 | > 100 | > 100 | > 100 | > 100 | > 100
CC1=CC(O)CC(C)(C)C1/C=C/C(C)=C/C=C/C(C)=C/C=C/C=C(C)/C=C/C=C(C)/C=C/C1=C(C)CC(O)CC1(C)C (stereo not given) | > 100 | > 100 | 30 | 41 | 66.3 | 33.2 |  | 68.8
C=CCN(c1cc(OC)c2[nH]c(C(=O)O)c(C)c2c1[N+](=O)[O-])S(C)(=O)=O | > 100 | > 100 | > 100 |  | > 100 | > 100 | > 100 | > 100
Fc1cccc(F)c1C1SCc2nc3cc(Cl)ccc3n21 (stereo not given) | > 100 | > 100 | 37 | > 100 | > 72.4 | > 100 | > 100 | > 100
Cc1ccc2nc(Nc3ccccc3C)c(Nc3ccccc3C)nc2c1 | 49.1 | > 100 | 40.2 | 54.1 | > 100 | > 58.1 | > 100 | 31.7
COc1cc2c3cc1Oc1cc(ccc1O)C[C@@H]1c4c(cc(OC)c(O)c4Oc4ccc(cc4)C[C@@H]3[N+](C)(C)CC2)CC[N+]1(C)C | > 100 | > 100 | > 100 | > 100 | > 100 | 47 | 28.3 | > 100
Nc1cc2nc(-c3ccccc3)cn2cn1 | > 100 | > 100 | > 100 |  |  | > 100 | > 100 | > 100
COC(=O)[C@@H]1[C@H]2CC[C@]3(C)[C@@H](OC(C)=O)CC[C@H]3[C@@H]2CC[C@H]1C1(C)SCCS1 | 74.5 | > 100 | 46.3 | 47.9 | > 100 | 40.6 | > 100 | 40
O=c1cccc2n1CC1CNCC2C1 (stereo not given) | > 100 | > 100 | > 100 | > 100 |  | > 100 | > 100 | > 100
CCCCCc1cc(CCCC)sc1-c1ccco1 | > 100 | > 100 | > 73 | > 100 | > 100 | > 100 | > 100 | > 100
CC(=O)N=S(NC(=O)c1ccc(C)cc1)C(Cl)(Cl)Cl (stereo not given) | > 100 | > 100 | > 100 | > 100 | 93.4 | > 100 | > 100 | 
CCOP(=O)(CC1OC(CO)C(O)C1O)OCC (stereo not given) | > 100 | > 100 | > 100 | > 100 | > 100 | > 100 | > 100 | > 100
